This passage reports inhibition, percent of control and residual activity results from ChEMBL document CHEMBL5696442, “Discovery of type II inhibitors of TGFβ-activated kinase 1 (TAK1) and mitogen-activated protein kinase kinase kinase kinase 2 (MAP4K2)” (J Med Chem, 2015).

In experiment [1] the target is Serine/threonine-protein kinase 4 (Homo sapiens) (UniProt Q13043). The experiment in a line: Inhibition of MST1 Lys1 labeling site harbouring ETGQIVAIKQVPVESDLQEIIK in human Huh-7 cells at 1 uM by KiNativ Profiling analysis relative to control.
Experiment [2] concerns the target Microtubule-associated serine/threonine-protein kinase 2 (Homo sapiens) (UniProt Q6P0Q8). Description: Inhibition of MAST2 Lys2 labeling site harbouring DLKPDNLLITSMGHIK in human Huh-7 cell lysate at 1 uM by KiNativ Profiling analysis relative to control. The experiment is classed as subcellular.
The next experiment concerns the target Ephrin type-A receptor 2 (Homo sapiens, UniProt P29317). Description: Inhibition of EPHA2 (unknown origin) at 1 uM by Ambit Kinomescan binding assay relative to control.
Experiment [3] addresses Mitogen-activated protein kinase kinase kinase kinase 3 (Homo sapiens) (UniProt Q8IVH8). Description: Inhibition of MAP4K3 (unknown origin) at 1 uM by Ambit Kinomescan binding assay relative to control.
Experiment [4] deals with T1, Inhibitor of nuclear factor kappa-B kinase subunit epsilon (Homo sapiens) (UniProt Q14164).
T1 sequence (whole entry): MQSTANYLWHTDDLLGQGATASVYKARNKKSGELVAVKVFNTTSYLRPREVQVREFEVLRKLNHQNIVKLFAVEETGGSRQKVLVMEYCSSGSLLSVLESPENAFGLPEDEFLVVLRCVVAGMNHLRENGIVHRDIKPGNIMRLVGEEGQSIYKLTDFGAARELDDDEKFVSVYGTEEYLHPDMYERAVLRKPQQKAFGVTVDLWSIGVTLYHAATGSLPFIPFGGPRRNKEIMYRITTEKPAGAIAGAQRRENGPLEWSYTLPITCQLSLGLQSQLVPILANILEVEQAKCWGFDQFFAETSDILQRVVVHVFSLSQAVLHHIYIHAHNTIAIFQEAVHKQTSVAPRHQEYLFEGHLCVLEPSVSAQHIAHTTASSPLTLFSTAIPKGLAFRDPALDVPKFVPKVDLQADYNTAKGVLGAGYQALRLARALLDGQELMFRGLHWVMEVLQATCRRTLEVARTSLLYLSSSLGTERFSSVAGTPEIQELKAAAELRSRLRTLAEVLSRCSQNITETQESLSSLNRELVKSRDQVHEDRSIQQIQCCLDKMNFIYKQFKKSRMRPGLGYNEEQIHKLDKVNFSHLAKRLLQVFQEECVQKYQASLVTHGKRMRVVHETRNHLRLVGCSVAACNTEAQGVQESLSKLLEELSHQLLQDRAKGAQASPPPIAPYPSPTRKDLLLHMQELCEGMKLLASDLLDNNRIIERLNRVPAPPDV
The experiment in a line: Inhibition of IKKe Lys2 labeling site in human A-375 cells at 5 uM by KiNativ Profiling analysis relative to control. The experiment is classed as cell-based.

In experiment [5] the target is Mitogen-activated protein kinase 11 (Homo sapiens) (UniProt Q15759). Description: Inhibition of p38 beta (unknown origin) at 1 uM by Ambit Kinomescan binding assay relative to control; values are per cent of control.
The target in experiment [6] is T2, Dual specificity mitogen-activated protein kinase kinase 4 (Homo sapiens) (UniProt P45985).
T2 sequence (whole entry): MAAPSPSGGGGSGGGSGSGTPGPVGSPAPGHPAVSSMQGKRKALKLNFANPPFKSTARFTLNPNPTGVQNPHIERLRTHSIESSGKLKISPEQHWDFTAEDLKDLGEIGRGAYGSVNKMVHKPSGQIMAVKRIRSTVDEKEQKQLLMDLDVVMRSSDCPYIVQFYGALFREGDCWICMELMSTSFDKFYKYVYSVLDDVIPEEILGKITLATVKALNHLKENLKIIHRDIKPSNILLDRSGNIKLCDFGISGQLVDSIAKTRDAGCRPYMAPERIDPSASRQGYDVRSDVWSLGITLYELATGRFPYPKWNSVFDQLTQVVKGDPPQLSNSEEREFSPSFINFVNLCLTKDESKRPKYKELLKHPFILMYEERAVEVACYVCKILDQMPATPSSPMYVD
The experiment in a line: Inhibition of MAP2K4 Lys2 labeling site in human A-375 cells at 0.05 uM by KiNativ Profiling analysis relative to control. Type of experiment: cell-based.

Experiment [7] deals with Cyclin-dependent kinase 16 (Homo sapiens) (UniProt Q00536). Description: Inhibition of PCTAIRE1 Lys1 labeling site in human A-375 cells at 0.05 uM by KiNativ Profiling analysis relative to control. Type of experiment: cell-based.
The target of experiment [8] is T3, Aurora kinase A (Homo sapiens) (UniProt O14965).
T3 sequence (whole entry): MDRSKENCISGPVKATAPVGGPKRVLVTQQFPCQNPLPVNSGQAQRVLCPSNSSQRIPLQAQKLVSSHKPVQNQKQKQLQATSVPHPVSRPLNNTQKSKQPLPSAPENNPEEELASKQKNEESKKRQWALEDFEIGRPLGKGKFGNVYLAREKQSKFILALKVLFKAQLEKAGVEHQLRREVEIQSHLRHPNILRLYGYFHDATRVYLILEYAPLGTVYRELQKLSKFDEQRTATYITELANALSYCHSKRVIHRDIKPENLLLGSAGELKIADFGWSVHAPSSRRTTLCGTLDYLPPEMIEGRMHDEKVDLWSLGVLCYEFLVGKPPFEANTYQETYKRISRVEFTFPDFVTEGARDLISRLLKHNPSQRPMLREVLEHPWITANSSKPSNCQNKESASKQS
Description: Inhibition of AurA K2 labeling site harbouring DIKPENLLLGSAGELK in human Huh-7 cells at 10 uM by KiNativ Profiling analysis relative to control. The experiment is classed as cell-based.

Experiment [9] concerns the target Dual specificity protein kinase TTK (Homo sapiens) (UniProt P33981). Description: Inhibition of TTK (unknown origin) at 10 uM by Ambit Kinomescan binding assay relative to control; values are per cent of control.
The target in experiment [10] is Non-receptor tyrosine-protein kinase TYK2 (Homo sapiens) (UniProt P29597). Description: Inhibition of TYK2 domain2 ACT labeling site in human A-375 cells at 5 uM by KiNativ Profiling analysis relative to control. The experiment is classed as cell-based.
For experiment [11], the target named is DNA-dependent protein kinase catalytic subunit (Homo sapiens) (UniProt P78527). The experiment in a line: Inhibition of PRKDC ATP labeling site harbouring EHPFLVKGGEDLR in human Huh-7 cells at 1 uM by KiNativ Profiling analysis relative to control. Type of experiment: cell-based.
The target in experiment [12] is Rho-associated protein kinase (Homo sapiens) (UniProt O75116+Q13464). Description: Inhibition of ROCK1/2 K2 labeling site in human Huh-7 cells at 1 uM by KiNativ Profiling analysis relative to control. The experiment is classed as cell-based.
In experiment [13] the target is Casein kinase I isoform epsilon (Homo sapiens) (UniProt P49674). Description: Inhibition of CSNK1E (unknown origin) at 10 uM by Ambit Kinomescan binding assay.
The target of experiment [14] is Mitogen-activated protein kinase 1 (Homo sapiens) (UniProt P28482). The experiment in a line: Inhibition of ERK2 (unknown origin) at 10 uM by Ambit Kinomescan binding assay.
Experiment [15] concerns the target Myosin light chain kinase, smooth muscle (Homo sapiens) (UniProt Q15746). Description: Inhibition of smMLCK K1 labeling site in human Huh-7 cells at 10 uM by KiNativ Profiling analysis relative to control. The experiment is classed as cell-based.

Calls of active or inactive are those of the source. The rule behind the calls is not given here.

Chain of Microtubule-associated serine/threonine-protein kinase 2 (Homo sapiens) (Q6P0Q8 whole entry): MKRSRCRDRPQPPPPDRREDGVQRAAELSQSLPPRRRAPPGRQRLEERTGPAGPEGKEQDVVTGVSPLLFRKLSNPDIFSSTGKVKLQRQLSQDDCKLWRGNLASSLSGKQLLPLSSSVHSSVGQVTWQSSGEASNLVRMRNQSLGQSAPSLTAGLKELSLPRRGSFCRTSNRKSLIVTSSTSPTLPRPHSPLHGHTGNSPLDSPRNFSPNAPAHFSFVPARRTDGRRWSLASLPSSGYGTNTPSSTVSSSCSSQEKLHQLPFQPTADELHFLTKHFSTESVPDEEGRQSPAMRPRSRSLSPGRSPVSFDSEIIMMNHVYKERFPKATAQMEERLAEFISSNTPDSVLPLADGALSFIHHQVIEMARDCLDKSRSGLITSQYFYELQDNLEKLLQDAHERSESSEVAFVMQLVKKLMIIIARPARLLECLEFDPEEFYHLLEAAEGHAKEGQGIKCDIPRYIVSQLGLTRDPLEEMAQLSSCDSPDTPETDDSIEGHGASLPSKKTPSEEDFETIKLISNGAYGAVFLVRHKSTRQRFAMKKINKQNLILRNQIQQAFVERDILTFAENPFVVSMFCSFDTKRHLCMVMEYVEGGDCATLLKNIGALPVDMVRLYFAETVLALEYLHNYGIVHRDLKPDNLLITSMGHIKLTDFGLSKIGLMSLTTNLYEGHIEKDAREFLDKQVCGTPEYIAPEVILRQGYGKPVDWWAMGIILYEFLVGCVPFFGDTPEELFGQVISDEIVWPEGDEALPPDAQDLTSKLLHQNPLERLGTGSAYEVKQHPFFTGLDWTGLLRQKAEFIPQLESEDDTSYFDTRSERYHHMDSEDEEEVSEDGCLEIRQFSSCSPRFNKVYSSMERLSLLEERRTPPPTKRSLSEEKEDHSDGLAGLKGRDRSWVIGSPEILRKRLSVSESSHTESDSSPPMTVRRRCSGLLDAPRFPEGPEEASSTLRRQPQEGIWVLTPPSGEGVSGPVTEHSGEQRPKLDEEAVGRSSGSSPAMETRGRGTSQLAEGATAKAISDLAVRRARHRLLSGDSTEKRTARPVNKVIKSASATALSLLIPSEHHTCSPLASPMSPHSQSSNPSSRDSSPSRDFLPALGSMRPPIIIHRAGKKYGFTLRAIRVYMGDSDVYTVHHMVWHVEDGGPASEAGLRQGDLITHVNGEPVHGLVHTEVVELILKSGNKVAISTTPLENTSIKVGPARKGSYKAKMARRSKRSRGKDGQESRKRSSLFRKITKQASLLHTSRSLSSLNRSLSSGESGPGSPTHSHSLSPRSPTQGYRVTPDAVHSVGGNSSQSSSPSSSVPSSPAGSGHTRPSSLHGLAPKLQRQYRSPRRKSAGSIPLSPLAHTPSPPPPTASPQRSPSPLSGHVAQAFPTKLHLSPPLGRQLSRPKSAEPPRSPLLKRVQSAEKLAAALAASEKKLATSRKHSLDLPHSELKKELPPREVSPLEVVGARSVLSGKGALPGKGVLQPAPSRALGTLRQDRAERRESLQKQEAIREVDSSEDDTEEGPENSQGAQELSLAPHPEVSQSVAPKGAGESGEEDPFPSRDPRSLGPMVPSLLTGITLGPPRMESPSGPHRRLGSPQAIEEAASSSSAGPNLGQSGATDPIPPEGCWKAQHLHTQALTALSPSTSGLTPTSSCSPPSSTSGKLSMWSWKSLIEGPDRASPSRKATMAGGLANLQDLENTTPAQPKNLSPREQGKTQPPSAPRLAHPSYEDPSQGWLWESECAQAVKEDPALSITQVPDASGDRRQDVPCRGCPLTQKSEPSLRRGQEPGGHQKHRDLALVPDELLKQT
Chain of Cyclin-dependent kinase 16 (Homo sapiens) (Q00536 whole entry): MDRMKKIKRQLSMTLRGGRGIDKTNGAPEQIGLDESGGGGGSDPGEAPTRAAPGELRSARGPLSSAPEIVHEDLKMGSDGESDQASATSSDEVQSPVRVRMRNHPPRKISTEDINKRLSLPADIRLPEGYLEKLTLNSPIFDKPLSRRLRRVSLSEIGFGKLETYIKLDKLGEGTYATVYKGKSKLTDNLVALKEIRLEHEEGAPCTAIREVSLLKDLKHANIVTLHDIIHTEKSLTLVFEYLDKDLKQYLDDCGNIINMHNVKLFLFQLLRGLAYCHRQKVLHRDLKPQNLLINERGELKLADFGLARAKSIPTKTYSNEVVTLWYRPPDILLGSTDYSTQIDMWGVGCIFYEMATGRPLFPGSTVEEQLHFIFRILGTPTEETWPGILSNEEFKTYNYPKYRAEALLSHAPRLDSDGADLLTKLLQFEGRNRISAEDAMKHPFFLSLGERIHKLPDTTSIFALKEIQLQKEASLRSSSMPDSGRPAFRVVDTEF
Chain of Mitogen-activated protein kinase 11 (Homo sapiens) (Q15759 whole entry): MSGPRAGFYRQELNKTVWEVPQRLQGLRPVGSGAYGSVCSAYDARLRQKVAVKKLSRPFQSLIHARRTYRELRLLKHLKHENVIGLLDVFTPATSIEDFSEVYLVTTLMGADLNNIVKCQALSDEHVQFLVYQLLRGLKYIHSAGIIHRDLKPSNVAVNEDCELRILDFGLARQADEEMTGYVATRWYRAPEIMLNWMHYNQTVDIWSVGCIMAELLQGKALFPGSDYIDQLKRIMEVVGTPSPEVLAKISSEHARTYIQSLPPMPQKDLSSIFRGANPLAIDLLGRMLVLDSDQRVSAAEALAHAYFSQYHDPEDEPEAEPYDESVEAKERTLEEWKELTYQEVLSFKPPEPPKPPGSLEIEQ
Chain of Dual specificity protein kinase TTK (Homo sapiens) (P33981 whole entry, the tested form may be a part): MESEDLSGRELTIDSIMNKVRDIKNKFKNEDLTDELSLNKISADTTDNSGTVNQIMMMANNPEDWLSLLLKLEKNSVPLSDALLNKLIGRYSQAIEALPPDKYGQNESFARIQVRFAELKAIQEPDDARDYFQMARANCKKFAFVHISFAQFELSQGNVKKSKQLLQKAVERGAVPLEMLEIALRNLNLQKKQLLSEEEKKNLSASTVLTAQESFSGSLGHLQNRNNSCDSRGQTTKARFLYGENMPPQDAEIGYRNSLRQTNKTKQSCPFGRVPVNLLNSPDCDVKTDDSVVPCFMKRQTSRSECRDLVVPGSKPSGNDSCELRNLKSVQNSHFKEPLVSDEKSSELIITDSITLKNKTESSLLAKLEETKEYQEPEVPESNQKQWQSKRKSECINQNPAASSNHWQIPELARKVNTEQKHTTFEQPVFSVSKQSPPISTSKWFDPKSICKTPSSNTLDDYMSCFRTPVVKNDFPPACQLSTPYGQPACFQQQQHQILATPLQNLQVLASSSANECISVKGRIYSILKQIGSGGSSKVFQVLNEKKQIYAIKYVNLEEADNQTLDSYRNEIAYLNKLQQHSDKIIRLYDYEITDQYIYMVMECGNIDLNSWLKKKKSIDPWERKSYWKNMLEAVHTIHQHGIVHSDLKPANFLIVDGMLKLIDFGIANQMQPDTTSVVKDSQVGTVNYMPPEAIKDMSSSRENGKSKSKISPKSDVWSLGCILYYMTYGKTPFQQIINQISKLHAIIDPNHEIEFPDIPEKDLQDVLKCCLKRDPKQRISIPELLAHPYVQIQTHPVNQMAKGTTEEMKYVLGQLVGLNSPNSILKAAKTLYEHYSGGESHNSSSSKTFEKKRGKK
Chain of Serine/threonine-protein kinase 4 (Homo sapiens) (Q13043 whole entry, looked up): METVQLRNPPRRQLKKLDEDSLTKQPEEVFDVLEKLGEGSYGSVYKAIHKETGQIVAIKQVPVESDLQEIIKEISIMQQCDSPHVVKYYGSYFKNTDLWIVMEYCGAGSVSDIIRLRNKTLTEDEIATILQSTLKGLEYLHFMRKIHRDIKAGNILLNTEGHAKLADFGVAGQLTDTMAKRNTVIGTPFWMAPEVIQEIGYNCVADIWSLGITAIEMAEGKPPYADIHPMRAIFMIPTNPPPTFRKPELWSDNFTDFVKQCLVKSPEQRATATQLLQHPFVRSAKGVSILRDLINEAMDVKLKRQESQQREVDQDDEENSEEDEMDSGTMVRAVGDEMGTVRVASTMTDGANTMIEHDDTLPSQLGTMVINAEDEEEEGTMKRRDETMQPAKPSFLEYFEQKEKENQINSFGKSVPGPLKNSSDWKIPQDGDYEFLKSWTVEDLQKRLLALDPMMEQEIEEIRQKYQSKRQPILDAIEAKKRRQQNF
Chain of Mitogen-activated protein kinase 1 (Homo sapiens) (P28482 whole entry): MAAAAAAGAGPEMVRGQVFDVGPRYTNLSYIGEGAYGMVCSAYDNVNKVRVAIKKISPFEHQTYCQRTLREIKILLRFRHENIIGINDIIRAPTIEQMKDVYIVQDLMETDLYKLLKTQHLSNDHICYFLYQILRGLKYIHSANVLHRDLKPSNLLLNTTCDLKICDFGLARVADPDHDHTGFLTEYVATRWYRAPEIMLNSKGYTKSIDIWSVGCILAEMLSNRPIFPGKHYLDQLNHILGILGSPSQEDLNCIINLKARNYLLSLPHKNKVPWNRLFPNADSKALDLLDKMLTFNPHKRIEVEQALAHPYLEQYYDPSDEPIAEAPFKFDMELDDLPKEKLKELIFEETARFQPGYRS
Chain of Casein kinase I isoform epsilon (Homo sapiens) (P49674 whole entry, looked up, canonical isoform): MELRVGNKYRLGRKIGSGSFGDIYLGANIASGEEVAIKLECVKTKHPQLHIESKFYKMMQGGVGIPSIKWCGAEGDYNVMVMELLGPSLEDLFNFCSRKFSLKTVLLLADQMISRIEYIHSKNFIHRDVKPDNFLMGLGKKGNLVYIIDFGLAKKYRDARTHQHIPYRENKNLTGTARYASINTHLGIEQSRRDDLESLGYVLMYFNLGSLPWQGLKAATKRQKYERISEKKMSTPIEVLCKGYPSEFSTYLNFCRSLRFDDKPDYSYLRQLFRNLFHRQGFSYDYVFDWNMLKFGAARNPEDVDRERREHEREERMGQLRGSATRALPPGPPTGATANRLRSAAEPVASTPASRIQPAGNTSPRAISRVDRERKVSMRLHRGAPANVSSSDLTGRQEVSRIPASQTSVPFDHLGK

For orientation: inhibition means the change of the read-out against control, counted positive when it falls. Take `CNc1cc(Oc2cc(C(=O)Nc3cc(N4CCN(C)CC4)cc(C(F)(F)F)c3)ccc2C)ncn1`: the values for the inhibition in experiment [1] and in experiment [2] were 8.9% and 7.2%, respectively.

As to `CCN1CCN(Cc2ccc(NC(=O)c3ccc(C)c(/C=C/c4cnc5[nH]ccc5c4OC)c3)cc2C(F)(F)F)CC1`, the figures for the percent of control (on Ephrin type-A receptor 2; in experiment [5]) were 1.2% and 0.3%, respectively. Also, the inhibition amounted to 20% in [3] and 37.6% in experiment [4].

As a reminder, the residual activity is the share of the control activity or signal that is left under treatment. Lower therefore signals a large loss of activity. Consider `CCN1CCN(Cc2ccc(NC(=O)c3ccc(C)c(Oc4ccnc5[nH]ccc45)c3)cc2C(F)(F)F)CC1`, for which the inhibition in experiment [6] was -3.4%; in experiment [7], 31.9%; in experiment [8], 9.4%; in [10] it was 50.1%; in experiment [11], 1.4%; in [12], 13.7%. The inhibition in [15] was -9%. The residual activity in experiment [9] was found to be 24%. Moreover, the inhibition entry in experiment [13] and in experiment [14] was “inactive” in each case.
